DBAASP
Values after ≈ are worked out from the molar mass of the structure shown. Values joined by “and” are separate entries in the source; they are usually repeats but may differ in a detail not shown here. Equal entries are not always repeated.

Assays:
Test in all cases: ≥ marks a high value that may be exact or a test limit, other limits are often not marked, values filed in µg/mL are converted to µM
[1] = tested on: Micrococcus luteus ATCC 9341
[2] = tested on: Pseudomonas aeruginosa ATCC 9027
[3] = tested on: Staphylococcus aureus ATCC 6538
[4] = tested on: Escherichia coli ATCC 2592
[5] = tested on: Candida albicans ATCC 36232
[6] = tested on: Salmonella enterica subsp. enterica serovar Typhimurium ATCC 14028
[7] = tested on: Klebsiella pneumoniae ATCC 10031
[8] = tested on: Escherichia coli DH5alpha
[9] = tested on: Staphylococcus aureus ATCC 9144
[10] = tested on: Escherichia coli ATCC 10536
[11] = tested on: Bacillus subtilis ATCC 6633
[12] = tested on: Staphylococcus aureus ATCC 25923
[13] = tested on: Candida albicans ATCC 20032
[14] = tested on: Escherichia coli ATCC 25922
[15] = tested on: Staphylococcus aureus ATCC 12600
[16] = tested on: Pseudomonas aeruginosa ATCC 27853
[17] = tested on: Streptococcus mutans ATCC 25175
Staphylococcus aureus = tested on: Staphylococcus aureus
[18] = tested on: Staphylococcus epidermidis ATCC 12228

SMILES	MIC [8] [µM]	MIC [9] [µM]	MIC [10]	MIC [11] [µM]	MIC [12] [µM]	MIC [13] [µM]	MIC [14] [µM]	further results
CC(C)C[C@H](NC(=O)[C@H](CS)NC(=O)[C@H](CCCCN)NC(=O)[C@H](C)NC(=O)[C@H](C)NC(=O)[C@H](CS)NC(=O)[C@H](C)NC(=O)[C@H](C)NC(=O)[C@@H](N)CC(=O)O)C(=O)N[C@@H](Cc1c[nH]c2ccccc12)C(=O)N[C@@H](CCCN=C(N)N)C(N)=O [DAACAAKCLWR]								MIC [1]: ≥ 166 µM; MIC [2]: > 166 µM; MIC [3]: 166 µM (≈ 200 µg/mL); MIC [4]: ≥ 166 µM; MIC [5]: ≥ 166 µM
CC[C@H](C)[C@H](NC(=O)[C@@H]1CCCN1C(=O)[C@@H]1CCCN1C(=O)[C@H](CO)NC(=O)[C@@H](NC(=O)[C@H](CCCCN)NC(=O)[C@H](CCCCN)NC(=O)[C@H](Cc1ccccc1)NC(=O)[C@H](CC(C)C)NC(=O)[C@H](CCCCN)NC(=O)[C@H](CCCCN)NC(=O)CNC(=O)[C@H](CCCCN)NC(=O)[C@H](CCCCN)NC(=O)[C@H](CCCN=C(N)N)NC(=O)[C@H](Cc1ccccc1)NC(=O)[C@H](CCCN=C(N)N)NC(=O)[C@H](CCCCN)NC(=O)[C@H](Cc1ccccc1)NC(=O)[C@H](CCCN=C(N)N)NC(=O)[C@@H](N)Cc1ccccc1)C(C)C)C(=O)N[C@@H](CC(C)C)C(=O)N[C@@H](CC(C)C)C(=O)N[C@@H](CC(C)C)C(=O)N[C@@H](Cc1cnc[nH]1)C(=O)N[C@@H](CC(C)C)C(N)=O [FRFKRFRKKGKKLFKKVSPPILLLHL]	3.1 (≈ 10 µg/mL)	3.2 (≈ 10.3 µg/mL)	3.3 µM and 8.1 µM					
CC[C@H](C)[C@H](NC(=O)[C@H](CCCN=C(N)N)NC(=O)[C@@H](NC(=O)[C@@H](NC(=O)[C@@H]1CCCN1C(=O)[C@@H](NC(=O)[C@@H](NC(=O)[C@@H](NC(=O)[C@@H]1CCCN1C(=O)CNC(=O)[C@H](Cc1ccc(O)cc1)NC(=O)[C@H](CCCCN)NC(=O)[C@H](CCCCN)NC(=O)[C@H](Cc1c[nH]c2ccccc12)NC(=O)[C@H](C)NC(=O)[C@H](CCCN=C(N)N)NC(=O)[C@H](CC(C)C)NC(=O)[C@@H](NC(=O)[C@H](CCCCN)NC(=O)[C@H](CCCN=C(N)N)NC(=O)CNC(=O)[C@H](CC(C)C)NC(=O)[C@H](CO)NC(=O)[C@H](CCCN=C(N)N)NC(=O)[C@H](C)NC(=O)CNC(=O)CN)[C@@H](C)CC)[C@@H](C)CC)[C@@H](C)CC)C(C)C)[C@@H](C)CC)[C@@H](C)CC)C(N)=O [GGARSLGRKILRAWKKYGPIIVPIIRI]	2.5 (≈ 7.58 µg/mL)	3.1 (≈ 9.4 µg/mL)	2.2 µM (≈ 6.67 µg/mL)	1.2 (≈ 3.64 µg/mL)				
CC[C@H](C)[C@H](NC(=O)CN)C(=O)NCC(=O)N[C@@H](C)C(=O)N[C@H](C(=O)N[C@@H](CC(C)C)C(=O)N[C@@H](CCCCN)C(=O)N[C@H](C(=O)N[C@@H](C)C(=O)N[C@H](C(=O)N[C@H](C(=O)NCC(=O)N[C@@H](CC(C)C)C(=O)N1CCC[C@H]1C(=O)N[C@@H](C)C(=O)N[C@@H](C)C(=O)N[C@H](C(=O)N[C@@H](CO)C(=O)N[C@@H](Cc1c[nH]c2ccccc12)C(=O)N[C@H](C(=O)N[C@@H](CCCCN)C(=O)N[C@@H](CCCN=C(N)N)C(=O)N[C@@H](CCCCN)C(=O)N[C@@H](CCCN=C(N)N)C(=O)N[C@@H](CCC(N)=O)C(=O)N[C@@H](CCC(N)=O)C(N)=O)[C@@H](C)CC)[C@@H](C)CC)[C@@H](C)O)[C@@H](C)O)C(C)C)C(C)C [GIGAVLKVATTGLPAAISWIKRKRQQ]	4.2 (≈ 11.6 µg/mL)	4 (≈ 11 µg/mL)	3.3 µM (≈ 9.12 µg/mL)	6 (≈ 16.6 µg/mL)				
CC[C@H](C)[C@H](N)C(=O)N[C@@H](CC(C)C)C(=O)NCC(=O)N1CCC[C@H]1C(=O)N[C@H](C(=O)N[C@@H](CC(C)C)C(=O)NCC(=O)N[C@@H](CC(C)C)C(=O)N[C@H](C(=O)NCC(=O)N[C@@H](CC(=O)O)C(=O)N[C@H](C(=O)N[C@@H](CC(C)C)C(=O)NCC(=O)N[C@@H](CC(=O)O)C(=O)N[C@@H](CC(C)C)C(=O)N[C@@H](CC(C)C)C(N)=O)[C@@H](C)O)C(C)C)C(C)C [ILGPVLGLVGDTLGDLL]				≥ 60.1	> 60.1	≥ 60.1	> 60.1	
CC(C)C[C@H](NC(=O)[C@H](C)NC(=O)[C@@H](N)CO)C(=O)N[C@H](C(=O)NCC(=O)N[C@H]1CSSC[C@@H](C(=O)N[C@@H](Cc2ccccc2)C(=O)NCC(=O)N[C@@H](CCCN=C(N)N)C(=O)NCC(=O)O)NC(=O)[C@@H]2CCCN2C(=O)[C@H](CC(N)=O)NC(=O)[C@@H]2CCCN2C(=O)[C@@H]2CCCN2C(=O)[C@H](Cc2ccc(O)cc2)NC(=O)[C@H](CO)NC(=O)[C@H](CCCCN)NC(=O)[C@H]([C@@H](C)O)NC(=O)[C@H](Cc2c[nH]c3ccccc23)NC1=O)C(C)C [SALVGCWTKSYPPNPCFGRG]					11.7 (≈ 25 µg/mL)	≥ 46.7		

Further lines, with some results ahead:

MIC [8] [µM]	MIC [9] [µM]	MIC [10]	MIC [11] [µM]	MIC [12] [µM]	MIC [13] [µM]	MIC [14] [µM]	SMILES	further results
2.04 (≈ 3.13 µg/mL)							CC(C)C[C@H](NC(=O)[C@H](Cc1ccccc1)NC(=O)[C@H](CCCCN)NC(=O)[C@H](C)NC(=O)[C@H](C)NC(=O)[C@H](CC(C)C)NC(=O)[C@H](CCCCN)NC(=O)[C@H](CCCCN)NC(=O)[C@H](CC(C)C)NC(=O)[C@H](CC(C)C)NC(=O)[C@H](CCCCN)NC(=O)[C@H](CC(C)C)NC(=O)[C@@H](N)Cc1ccccc1)C(=O)O [FLKLLKKLAAKFL]	MIC [6]: 16.3 µM (≈ 25 µg/mL); MIC [7]: 16.3 µM (≈ 25 µg/mL)
			≥ 42.3	15.8 (≈ 37.5 µg/mL)	≥ 42.3	31.7 (≈ 75 µg/mL)	CC[C@H](C)[C@H](NC(=O)CN)C(=O)NCC(=O)NCC(=O)N[C@@H](C)C(=O)N[C@@H](CC(C)C)C(=O)N[C@@H](CC(C)C)C(=O)N[C@@H](CO)C(=O)N[C@@H](C)C(=O)NCC(=O)N[C@@H](CCCCN)C(=O)N[C@@H](CO)C(=O)N[C@@H](C)C(=O)N[C@@H](CC(C)C)C(=O)N[C@@H](CCCCN)C(=O)NCC(=O)N[C@@H](CC(C)C)C(=O)N[C@@H](C)C(=O)N[C@@H](CCCCN)C(=O)NCC(=O)N[C@@H](CC(C)C)C(=O)N[C@@H](C)C(=O)N[C@@H](CCC(=O)O)C(=O)N[C@@H](Cc1cnc[nH]1)C(=O)N[C@@H](Cc1ccccc1)C(N)=O [GIGGALLSAGKSALKGLAKGLAEHF]	
						> 60.9	CC[C@H](C)[C@H](NC(=O)[C@H](C)NC(=O)CNC(=O)[C@H](Cc1ccccc1)NC(=O)[C@H](CC(C)C)NC(=O)CN)C(=O)N[C@@H](C)C(=O)NCC(=O)N[C@@H](Cc1ccccc1)C(=O)N[C@H](C(=O)N[C@@H](CCC(=O)O)C(=O)N[C@@H](CC(N)=O)C(=O)NCC(=O)N[C@@H](Cc1c[nH]c2ccccc12)C(=O)N[C@@H](CCC(=O)O)C(=O)NCC(=O)N[C@@H](CCSC)C(=O)N[C@H](C(=O)N[C@@H](CC(=O)O)C(=O)NCC(N)=O)[C@@H](C)CC)[C@@H](C)CC [GLFGAIAGFIENGWEGMIDG]	MIC [15]: ≥ 60.9 µM; MIC [16]: > 60.9 µM; MIC [17]: ≥ 60.9 µM
			7.54 (≈ 12.5 µg/mL)				CC(C)[C@H](NC(=O)[C@H](CS)NC(=O)[C@@H](NC(=O)[C@H](CCCN=C(N)N)NC(=O)[C@H](CCCCN)NC(=O)CNC(=O)[C@H](CC(N)=O)NC(=O)[C@H](CS)NC(=O)[C@H](Cc1ccc(O)cc1)NC(=O)CNC(=O)CNC(=O)[C@H](CO)NC(=O)[C@@H](N)CCCN=C(N)N)C(C)C)C(=O)N[C@@H](CS)C(=O)N[C@@H](CCCN=C(N)N)C(=O)O [RSGGYCNGKRVCVCR]	MIC (Staphylococcus aureus): > 60.3 µM; MIC [1]: 15.1 µM (≈ 25 µg/mL); MIC [18]: 7.54 µM (≈ 12.5 µg/mL); MIC [2]: 30.2 µM (≈ 50 µg/mL); MIC [3]: 15.1 µM (≈ 25 µg/mL); MIC [4]: 30.2 µM (≈ 50 µg/mL); MIC [5]: 15.1 µM (≈ 25 µg/mL)
